Assay results from ChEMBL document CHEMBL1144426, “Adenosine kinase inhibitors. 4. 6,8-Disubstituted purine nucleoside derivatives. Synthesis, conformation, and enzyme inhibition” (J Med Chem, 2005).

Molecular target: Adenosine kinase (Homo sapiens, UniProt P55263)
Test: Inhibitory activity against Human Recombinant Adenosine Kinase

Adenosine kinase, sequence (P55263 whole entry): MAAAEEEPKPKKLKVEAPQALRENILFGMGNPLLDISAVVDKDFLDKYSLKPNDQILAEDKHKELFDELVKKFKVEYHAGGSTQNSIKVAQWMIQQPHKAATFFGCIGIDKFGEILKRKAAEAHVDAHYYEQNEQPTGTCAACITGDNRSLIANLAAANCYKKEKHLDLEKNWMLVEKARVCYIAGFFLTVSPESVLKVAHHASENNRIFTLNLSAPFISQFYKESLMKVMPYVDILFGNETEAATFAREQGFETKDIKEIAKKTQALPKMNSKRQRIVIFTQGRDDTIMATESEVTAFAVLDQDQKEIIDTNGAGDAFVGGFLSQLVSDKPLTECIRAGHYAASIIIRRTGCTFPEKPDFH

IC50 | SMILES
0.051 µM | C[C@H]1O[C@@H](n2cc(-c3ccccc3)c3c(N4CCc5ccccc54)ncnc32)[C@H](O)[C@@H]1O
0.3 µM | C=Cc1nc2c(Nc3ccccc3)ncnc2n1[C@@H]1O[C@H](CO)[C@@H](O)[C@H]1O
1 µM | OC[C@H]1O[C@@H](n2c(I)nc3c(N4CCc5ccccc54)ncnc32)[C@H](O)[C@@H]1O
0.5 µM | OC[C@H]1O[C@@H](n2cnc3c(N4CCc5ccccc54)ncnc32)[C@H](O)[C@@H]1O
3.6 µM | OC[C@H]1O[C@@H](n2c(Cl)nc3c(Nc4ccccc4)ncnc32)[C@H](O)[C@@H]1O
0.09 µM | OC[C@H]1O[C@@H](n2c(Nc3ccccc3)nc3c(Nc4ccccc4)ncnc32)[C@H](O)[C@@H]1O
1 µM | CSc1nc2c(Nc3ccccc3)ncnc2n1[C@@H]1O[C@H](CO)[C@@H](O)[C@H]1O
0.15 µM | CSc1nc2c(N3CCc4ccccc43)ncnc2n1[C@@H]1O[C@H](CO)[C@@H](O)[C@H]1O
0.2 µM | C[C@H]1O[C@@H](n2c(Nc3ccccc3)nc3c(N4CCc5ccccc54)ncnc32)[C@H](O)[C@@H]1O
1 µM | C#Cc1nc2c(N3CCc4ccccc43)ncnc2n1[C@@H]1O[C@H](CO)[C@@H](O)[C@H]1O
7.1 µM | OC[C@H]1O[C@@H](n2c(N3CCc4ccccc43)nc3c(Nc4ccccc4)ncnc32)[C@H](O)[C@@H]1O
0.48 µM | OC[C@H]1O[C@@H](n2c(Cl)nc3c(N4CCc5ccccc54)ncnc32)[C@H](O)[C@@H]1O
0.06 µM | C=Cc1nc2c(N3CCc4ccccc43)ncnc2n1[C@@H]1O[C@H](CO)[C@@H](O)[C@H]1O
6.9 µM | OC[C@H]1O[C@@H](n2c(-c3ccco3)nc3c(Nc4ccccc4)ncnc32)[C@H](O)[C@@H]1O
2.9 µM | OC[C@H]1O[C@@H](n2c(-c3ccco3)nc3c(N4CCc5ccccc54)ncnc32)[C@H](O)[C@@H]1O
4.5 µM | OC[C@H]1O[C@@H](n2c(I)nc3c(Nc4ccccc4)ncnc32)[C@H](O)[C@@H]1O
0.019 µM | OC[C@H]1O[C@@H](n2c(Nc3ccccc3)nc3c(N4CCc5ccccc54)ncnc32)[C@H](O)[C@@H]1O
0.23 µM | CCc1nc2c(N3CCc4ccccc43)ncnc2n1[C@@H]1O[C@H](CO)[C@@H](O)[C@H]1O
2 µM | OC[C@H]1O[C@@H](n2c(N3CCc4ccccc43)nc3c(N4CCc5ccccc54)ncnc32)[C@H](O)[C@@H]1O
